The source of these data is PubChem BioAssay (NCI).

Where “and” joins values, the source holds several entries; their conditions need not be identical. Equal values may be shown once.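 96-well plates; 48 h exposure; 5 concentrations. Endpoints by linear interpolation between flanking doses. Not reached: highest tested concentration assigned. At the GI50, growth is halved. Definition used: TGI = concentration required for complete inhibition of growth.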

The subject of one test is COLO 205 colon. Briefly: NCI tumour cell line growth inhibition, 48 h.
`O=c1cc(CNc2cc(F)cc(F)c2)c2ccc(I)cc2[nH]1`: the GI50 was 0.606 µM and the TGI was more than 100 µM.
The like results for `CCCN(Cc1ccc(F)cc1)c1ccc(CO)c(Cl)c1` were, in that order, 3.96 µM and 13.6 µM.
Take `CC[C@](C)(O)C(=O)O[C@H]1C(=O)O[C@@H]2C[C@H]3C(C)=CC(=O)[C@@H](O)[C@]3(C)[C@H]3[C@@]4(O)OC[C@]32[C@@H]1[C@@H](C)[C@H]4O`: the GI50 is 1.92 µM; the TGI is 7.24 µM and 3.35 µM.
Take `CCN1C(=O)N(CC)C2C1NN=c1s/c(=C3\C(=O)N(C(C)C)c4ccccc43)c(=O)n12` (stereo not given): the GI50 was 0.337 µM and the TGI is 1.8 µM.
Turning to `NC(=O)[C@H]1CCN(c2ncnc(N)c2F)C[C@@H]1N1CCC[C@@H](Nc2cc(Cl)cc(C(F)(F)F)c2)C1=O`, the GI50 is 5.24 µM and the TGI came out at 34.2 µM.
For `CCN(CC)c1ccc(/C=C/c2cc(C)c3ccccc3n2)cc1`, in that order: 2.14 µM and 5.23 µM.
For `Cc1ccc2[nH]c(C(=O)NN3C(=O)CSC34CCCCC4C)c(-c3ccccc3)c2c1` (stereo not given), in that order: 20.4 µM and 48.9 µM.
On to `CCN=C1C=CC(=C(c2ccc(N(C)C)cc2)c2ccc(N(C)C)cc2)c2ccccc21`, for which the GI50 is 0.0508 µM and the TGI is 0.183 µM.
For `O=C(CCl)c1ccc([N+](=O)[O-])o1`, in that order: 1.73 µM and 3.72 µM.
In turn, `Nc1ncnc2c1ccn2C1OC2COP(=O)(O)OC2C1O` (stereo not given) came in with a TGI of 3.99 µM.
Take `Cc1cc(N2CCCCC2)nc(N(CCNc2ccnc3cc(Cl)ccc23)Cc2ccco2)n1`: the GI50 was 1.49 µM and the TGI worked out at 3.25 µM.
Take `O=C(O)[C@@H]1C2CC([C@@H]1C(=O)O)[C@H](N1C(=O)CCC1=O)[C@@H]2Br` (stereo not given in full): the TGI was more than 100 µM.
Take `COc1cc2cc(Oc3ccc(NC(=O)Nc4ccc(Cl)c(C(F)(F)F)c4)cc3)c(C)nc2cc1OCCN1CCCCC1`: the GI50 was 1.65 µM and the TGI turned out to be 3.33 µM.
For `CC1=CC(=O)c2c(O)cccc2C1=O`, the TGI turned out to be 3.39 µM.
For the compound `CC12CCC(=O)C(O1)C1C(=O)c3cc4ccccc4cc3C(=O)C12` (stereo not given), the GI50 was 19.9 µM and the TGI is 47.1 µM.

The test system of another test is HCT-15 colon. In words: NCI tumour cell line growth inhibition, 48 h.
Consider `O=c1cc(CNc2cc(F)cc(F)c2)c2ccc(I)cc2[nH]1`, for which the GI50 was 0.387 µM and the TGI was more than 100 µM.
For `CCCN(Cc1ccc(F)cc1)c1ccc(CO)c(Cl)c1`, in that order: 5.35 µM and 19.8 µM.
`CC[C@](C)(O)C(=O)O[C@H]1C(=O)O[C@@H]2C[C@H]3C(C)=CC(=O)[C@@H](O)[C@]3(C)[C@H]3[C@@]4(O)OC[C@]32[C@@H]1[C@@H](C)[C@H]4O`: the GI50 is 0.214 µM; the TGI is 0.874 µM and 0.533 µM.
For the compound `CCN1C(=O)N(CC)C2C1NN=c1s/c(=C3\C(=O)N(C(C)C)c4ccccc43)c(=O)n12` (stereo not given), the GI50 was 0.322 µM and the TGI was more than 100 µM.
For `NC(=O)[C@H]1CCN(c2ncnc(N)c2F)C[C@@H]1N1CCC[C@@H](Nc2cc(Cl)cc(C(F)(F)F)c2)C1=O`, in that order: 15.1 µM and 48.2 µM.
For `CCN(CC)c1ccc(/C=C/c2cc(C)c3ccccc3n2)cc1`, in that order: 2.27 µM and 26.4 µM.
As for `Cc1ccc2[nH]c(C(=O)NN3C(=O)CSC34CCCCC4C)c(-c3ccccc3)c2c1` (stereo not given), the GI50 was 18 µM and the TGI was found to be 39.1 µM.
The like results for `CCN=C1C=CC(=C(c2ccc(N(C)C)cc2)c2ccc(N(C)C)cc2)c2ccccc21` were, in that order, 0.294 µM and 1.31 µM.
For `O=C(CCl)c1ccc([N+](=O)[O-])o1`, in that order: 1.61 µM and 3.22 µM.
As to `Nc1ncnc2c1ccn2C1OC2COP(=O)(O)OC2C1O` (stereo not given), the TGI was 3.11 µM.
For `Cc1cc(N2CCCCC2)nc(N(CCNc2ccnc3cc(Cl)ccc23)Cc2ccco2)n1`, the GI50 is 1.44 µM and the TGI stood at 3.3 µM.
For the compound `O=C(O)[C@@H]1C2CC([C@@H]1C(=O)O)[C@H](N1C(=O)CCC1=O)[C@@H]2Br` (stereo not given in full), the TGI was more than 100 µM.
On to `COc1cc2cc(Oc3ccc(NC(=O)Nc4ccc(Cl)c(C(F)(F)F)c4)cc3)c(C)nc2cc1OCCN1CCCCC1`, for which the GI50 was 1.25 µM and the TGI worked out at 2.59 µM.
The like results for `CC[C@H](Nc1nc(N)nc(C)c1C#N)c1nc2cccc(CN(C)c3ncc(C(=O)NO)cn3)c2c(=O)n1-c1ccccc1` were, in that order, 2.11 µM and 12 µM.
For `CC12CCC(=O)C(O1)C1C(=O)c3cc4ccccc4cc3C(=O)C12` (stereo not given), in that order: 17.3 µM and 36.8 µM.

The test system of another test is MDA-MB-231 breast. In words: NCI tumour cell line growth inhibition, 48 h.
Turning to `O=c1cc(CNc2cc(F)cc(F)c2)c2ccc(I)cc2[nH]1`, the GI50 is 77.8 µM and the TGI was more than 100 µM.
In the case of `CCCN(Cc1ccc(F)cc1)c1ccc(CO)c(Cl)c1`, the GI50 is 13 µM and the TGI amounted to 27.3 µM.
`CC[C@](C)(O)C(=O)O[C@H]1C(=O)O[C@@H]2C[C@H]3C(C)=CC(=O)[C@@H](O)[C@]3(C)[C@H]3[C@@]4(O)OC[C@]32[C@@H]1[C@@H](C)[C@H]4O` returned a TGI of 4.34 µM.
Regarding `CCN1C(=O)N(CC)C2C1NN=c1s/c(=C3\C(=O)N(C(C)C)c4ccccc43)c(=O)n12` (stereo not given), the GI50 is 0.434 µM and the TGI worked out at 15.4 µM.
On to `NC(=O)[C@H]1CCN(c2ncnc(N)c2F)C[C@@H]1N1CCC[C@@H](Nc2cc(Cl)cc(C(F)(F)F)c2)C1=O`, for which the GI50 was 14.3 µM and the TGI was 32.6 µM.
The like results for `CCN(CC)c1ccc(/C=C/c2cc(C)c3ccccc3n2)cc1` were, in that order, 3.54 µM and 13.3 µM.
Regarding `Cc1ccc2[nH]c(C(=O)NN3C(=O)CSC34CCCCC4C)c(-c3ccccc3)c2c1` (stereo not given), the GI50 is 17 µM and the TGI is 34.5 µM.
In the case of `CCN=C1C=CC(=C(c2ccc(N(C)C)cc2)c2ccc(N(C)C)cc2)c2ccccc21`, the GI50 was 0.171 µM and the TGI is 1.3 µM.
